Columns and labels:
[1] = test system: GILZ mRNA in HUT-78 cells (CD74 positive T lymphoma); assay: GILZ mRNA induction in HUT-78 cells (RT-PCR); format: cell-based, human; conditions: 18 hours; for Emax: GILZ mRNA relative fold of change; for EC50: Homo sapiens, HuT78, GILZ mRNA, free drug
Experimental: (§1) In vitro activity and targeted delivery of ADC 12-4, 12-5, 12-6, 12-7, 12-9, 12-10, the isotype-matched negative controls 12-11, 12-12, and naked anti-hCD74 (LL1) control were assessed in HUT-78 an SUDHL-6 cells (CD74 positive T and B lymphoma cell lines respectively) as well as 786-O cells (a CD74 negative renal carcinoma cell line). The cells were treated with individual ADC, anti-hCD74 antibody, or budesonide (Bud) for 18 hours and then glucocorticoid-induced leucine zipper (GILZ) mRNA, a glucocorticoid-regulated gene, was measured by RT-PCR. […] (The activity at the highest concentration in 786-O cells may be due to impurity of the sample or possible low CD74 expression in cells.). The overall activity profile of the ADC is consistent with targeted delivery of a payload (e.g. dexamethasone or budesonide) that is dependent on the binding and internalization of the antibody with its antigen on the cell surface, and on the efficiency of linker cleavage inside the cells.
(§2) The quantitation of Glucocorticoid-induced leucine zipper (GILZ) mRNA expression was determined by real time-PCR. In brief, actively growing cells were harvested and then resuspended in the assay buffer (HBSS plus 2% FBS) at concentration of 1.1×10^6/ml. 5×10^4 cells/well in 45 μl volume were plated to Greiner 384 well v-bottom reagent plates (Ref #781280). […] After 18 hour incubation, the cells were lysed, and the lysates were used for cDNA synthesis and real-time PCR, according to manufacturer's instructions in TaqMan Gene Expression Cells-to-CT™ Kit (Invitrogen, Carlsbad, Calif.). Specific primers against human GILZ and GAPDH were purchased from the Life Technologies (Invitrogen, Carlsbad, Calif.). Real-time PCR reactions were performed on the Applied Biosystems 7900 HT Fast Real-Time PCR System. Thermal cycling conditions consisted of an initial UDG incubation hold (50° C., 2 min) denaturing and enzyme activation step (95° C., 2 min) followed by 40 cycles of denaturing (95° C., 15 s), annealing and extending (60° C., 1 min). The mRNA levels were normalized to GAPDH (internal control) using the formula Δ threshold cycle (CT)=CT target−CT reference. The differential expression signal were expressed as delta Ct (ΔCt) by subtracting the Ct values of the un-stimulated samples (containing only assay buffer or DMSO vehicle) from those of the stimulated samples and expressed as relative fold of change using the formula: 2^ΔΔCT. The graphs were generated in GraphPad Prism and the EC50 values were calculated with non-linear regression curve fit of the data in GraphPad Prism.

[2] = test system: GILZ mRNA in SUDHL-6 cells (CD74 positive B lymphoma); assay: GILZ mRNA induction in SUDHL-6 cells (RT-PCR); format: cell-based, human; conditions: 18 hours; for Emax: GILZ mRNA relative fold of change; for EC50: Homo sapiens, SU-DHL-6, GILZ mRNA, free drug
Experimental: as §1, §2

[3] = test system: GILZ mRNA in 786-O cells (CD74 negative renal carcinoma); assay: GILZ mRNA induction in 786-O cells (RT-PCR); format: cell-based, human; conditions: 786-0 cells (CD74(—)), 18 hours; for Emax: GILZ mRNA relative fold of change; for EC50: Homo sapiens, GILZ mRNA, free drug
Experimental: as §1, §2

[4] = Solubility of drug-linkers in 20% MeCN/H2O; format: physicochemical; conditions: tested at a concentration of 10 mg/mL
Experimental: The solubility of exemplary drug-linker conjugates in aqueous solutions was evaluated. Linkers utilized in drug conjugates may have aqueous solubility to enable conjugation in aqueous media amenable to protein solubilization. Furthermore, linkers with aqueous solubility are considered hydrophilic, and may confer to the drug conjugate a reduced propensity to aggregate relative to standard hydrophobic linkers in the literature. The following exemplary drug-linkers were tested in an aqueous solution comprising 20% acetonitrile (MeCN/H2O) for solubility at a concentration of 10 mg/mL.

[5] = In vitro stability of drug-linkers in human whole blood (parent and released dexamethasone, LC-MS/MS); conditions: for Calculated Conc. for dexamethasone in human whole blood: released dexamethasone
[6] = In vitro stability of drug-linkers in rat liver lysosomal lysate (parent and released dexamethasone, LC-MS/MS); conditions: for Calculated Conc. for dexamethasone rat lysomeal lysate: released dexamethasone
[7] = Matrix spiking (lysosomes pretreated with stopping reagent)

EC50 [1] [nM] | EC50 [2] [nM] | EC50 [3] [nM] | Compound | Emax [1] | Emax [2] | Emax [3] | Measured Solubility in 20% MeCN/H2O [4] [µg/mL] | Calculated Conc. for each compound in human whole blood ([5]; 0 m, 37° C.) [nM] | Calculated Conc. for each compound in human whole blood ([5]; 1 hr, 37° C.) [nM] | Calculated Conc. for each compound in rat lysomal lysate ([6]; 0 m, 37° C.) [nM] | Calculated Conc. for each compound in rat lysomal lysate ([6]; 5 m, 37° C.) [nM] | Calculated Conc. for each compound in rat lysomal lysate ([6]; 10 m, 37° C.) [nM] | Calculated Conc. for each compound in rat lysomal lysate ([6]; 15 m, 37° C.) [nM] | Calculated Conc. for each compound in rat lysomal lysate [6, 7] [nM] | also measured
 |  |  | CD74 Ab: anti-CD74 antibody LL1, HC SEQ ID NO:69, LC SEQ ID NO:73, pAzF at position 121 | 1.34 | 1.02 | 1.02 |  |  |  |  |  |  |  |  | 
 |  |  | C[C@@H]1C[C@H]2[C@@H]3CCC4=CC(=O)C=C[C@]4(C)[C@@]3(F)[C@@H](O)C[C@]2(C)[C@@]1(O)C(=O)COP(=O)(O)OP(=O)(O)OCCNC(=O)COC1C#CCCCCC1 (stereo partly drawn) [Drug Linker 1-4, 2-(2-(cyclooct-2-yn-1-yloxy)acetamido)ethyl(2-((8 S,9R,10S,11S,13 S,14 S,16R,17R)-9-fluoro-11,17-dihydroxy-10,13,16-trimethyl-3-oxo-6,7,8,9,10,11,12,13,14,15,16,17-dodecahydro-3H-cyclopenta[a]phenanthren-17-yl)-2-oxoethyl) dihydrogen pyrophosphate] |  |  |  | >10000 | 1617 | 1421 | 1148.2 | 158.2 | 19.0 | 3.7 | 2487.3 | Calculated Conc. for each compound in human whole blood ([5]; 6 hr, 37° C.): 1400 nM; Calculated Conc. for each compound in human whole blood ([5]; Matrix spiking (time 0 sample, blood pretreated with stopping reagent)): 3059 nM; Calculated Conc. for dexamethasone in human whole blood ([5]; 0 m): 0 nM; Calculated Conc. for dexamethasone in human whole blood ([5]; 1 hr): 0 nM; Calculated Conc. for dexamethasone in human whole blood ([5]; 6 hr): 0 nM; Calculated Conc. for dexamethasone in human whole blood ([5]; Matrix Spiking): 2 nM; Calculated Conc. for dexamethasone rat lysomeal lysate ([6]; 0 m): 4.7 nM; Calculated Conc. for dexamethasone rat lysomeal lysate ([6]; 5 m): 320.7 nM; Calculated Conc. for dexamethasone rat lysomeal lysate ([6]; 10 m): 559.4 nM; Calculated Conc. for dexamethasone rat lysomeal lysate ([6]; 15 m): 831.7 nM; Calculated Conc. for dexamethasone rat lysomeal lysate ([6]; 30 m): 1059.6 nM; Calculated Conc. for dexamethasone rat lysomeal lysate ([6]; 1 hr): 1148.8 nM; Calculated Conc. for dexamethasone rat lysomeal lysate ([6]; 2 hr): 854.5 nM; Calculated Conc. for dexamethasone rat lysomeal lysate ([6]; 3 hr): 841.9 nM; Calculated Conc. for dexamethasone rat lysomeal lysate ([6]; 6 hr): 826.6 nM
0.45 | 0.52 | 0.46 | CCC(=O)O[C@]1(C(=O)SCF)[C@H](C)C[C@H]2[C@@H]3C[C@H](F)C4=CC(=O)C=C[C@]4(C)[C@@]3(F)[C@@H](O)C[C@@]21C [Fluticasone Propionate, fluticasone propionate] | 10.27 | 15.78 | 25.38 |  |  |  |  |  |  |  |  | 
0.65 | 2.21 | 0.58 | CCCC1O[C@@H]2C[C@H]3[C@@H]4CCC5=CC(=O)C=C[C@]5(C)[C@H]4[C@@H](O)C[C@]3(C)[C@]2(C(=O)CO)O1 (some centres unmarked) [Budesonide, budesonide] | 9.03 | 14.33 | 25.68 |  |  |  |  |  |  |  |  | 
 |  |  | C[C@@H]1C[C@H]2[C@@H]3CCC4=CC(=O)C=C[C@]4(C)[C@@]3(F)[C@@H](O)C[C@]2(C)[C@@]1(O)C(=O)COP(=O)(O)Oc1ccc(NC(=O)COC2C#CCCCCC2)cc1 (stereo partly drawn) [Drug Linker 5-3, 4-(2-(cyclooct-2-yn-1-yloxy)acetamido)phenyl (2-((8S,9R,10S,11S,13S,14S,16R,17R)-9-fluoro-11,17-dihydroxy-10,13,16-trimethyl-3-oxo-6,7,8,9,10,11,12,13,14,15,16,17-dodecahydro-3H-cyclopenta[a]phenanthren-17-yl)-2-oxoethyl) hydrogen phosphate] |  |  |  | >10000 | 1299 | 937 | 1394.08 | 1295.86 | 1278.4 | 1407.73 | 2555.29 | Calculated Conc. for each compound in human whole blood ([5]; 5 m, 37° C.): 1251 nM; Calculated Conc. for each compound in human whole blood ([5]; 15 m, 37° C.): 1276 nM; Calculated Conc. for each compound in human whole blood ([5]; 30 m, 37° C.): 1111 nM; Calculated Conc. for each compound in human whole blood ([5]; 2 hr, 37° C.): 1480 nM; Calculated Conc. for each compound in rat lysomal lysate ([6]; 30 m, 37° C.): 1175.39 nM; Calculated Conc. for each compound in rat lysomal lysate ([6]; 1 hr, 37° C.): 970.65 nM; Calculated Conc. for each compound in rat lysomal lysate ([6]; 2 hr, 37° C.): 743.45 nM; Calculated Conc. for each compound in rat lysomal lysate ([6]; 3 hr, 37° C.): 500.41 nM; Calculated Conc. for each compound in rat lysomal lysate ([6]; 6 hr, 37° C.): 221.03 nM; rate of dexamethasone release in rat lysosomal extract (in words) ([6]; compared with 3-4, 5-3 releasing faster than 4-3): more slowly released
